BindingDB's records for patent US20230348424 (Schrödinger, 2023)

Key:
[1] = target: T1, Son of sevenless homolog 1 [564-1049] (Human, UniProt Q07889); test: Surface Plasmon Resonance (SPR) SOS1 Binding AssaySurface Plasmon Resonance (SPR) SOS1 Binding Assay
T1 construct: 564-1049
T1 sequence (Q07889 whole entry): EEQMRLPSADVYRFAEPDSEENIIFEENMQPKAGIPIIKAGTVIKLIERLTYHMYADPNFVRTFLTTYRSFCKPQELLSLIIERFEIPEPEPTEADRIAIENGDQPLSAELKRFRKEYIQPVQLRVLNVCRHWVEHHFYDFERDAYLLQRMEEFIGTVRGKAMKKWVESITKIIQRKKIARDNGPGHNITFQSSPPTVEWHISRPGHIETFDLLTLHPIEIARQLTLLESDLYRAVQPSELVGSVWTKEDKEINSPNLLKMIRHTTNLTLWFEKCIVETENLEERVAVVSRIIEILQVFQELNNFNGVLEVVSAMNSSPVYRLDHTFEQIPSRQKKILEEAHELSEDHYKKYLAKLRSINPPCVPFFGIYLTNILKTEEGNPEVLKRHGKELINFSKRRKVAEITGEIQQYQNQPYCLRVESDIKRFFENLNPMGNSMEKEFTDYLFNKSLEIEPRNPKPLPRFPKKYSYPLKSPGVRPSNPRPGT
Procedure: Binding to SOS1 was measured using a SPR assay with purified recombinant human SOS1 substrate (res. 564-1049 with N-terminal Avi tag; purified and biotinylated based on Hillig, et al., Proc Natl Acad Sci USA (2019); 116(7):2551-2560). SPR measurements were performed on a Biacore 8K SPR instrument (GE Healthcare, Sweden). Assays were performed at 25° C. using Series S SA sensor chips pre-coated with streptavidin (GE Healthcare, Cat. BR100531). Biotinylated SOS1 diluted in sample buffer (20 mM Tris HCI, 150 mM NaCl, 1 mM DTT, 0.05% TWEEN 20, 1 mM MgCh, pH 8.0) was captured to one flow cell of the chip to about 3,000 resonance units (RU) using sample buffer supplemented with 5% DMSO as a running buffer. Serial dilutions of the assayed compounds in the running buffer at 100, 50 or 0.5 µM were injected for 60 s at a flow rate of 30 µL/min and association phases were recorded. Dissociation of the samples was monitored for 600 s. Data processing was performed using Biacore Insight Software (Biacore, GE Healthcare). Sensorgrams recorded on a SA flow cell without captured protein were subtracted from sensorgrams recorded on the SOS1 surface. Blank injections of running buffer were used for double referencing and solvent correction was applied to all sample sensorgrams to correct for buffer mismatches. KDS were estimated using a kinetic or steady state, where applicable, fitting model describing a reversible equilibrium with 1:1 binding between SOS1 and the compound.

[2] = target: T2, Son of sevenless homolog 1 [564-1049]/GTPase KRas [G12C] (UniProt Q07889); test: SOS1 KRas(G12C) FRET Assay
T2 construct: 564-1049
Procedure: A 2x KRAS working solution was prepared in an assay buffer containing 5 nM GST-KRAS G12C and 2 nM anti-GST-Eu(K) (Cisbio, Cat. 61GSTKLA) and pre-incubated for 15 minutes at 25° C. […] The final DMSO concentration is 0.5%. […] FRET signal was converted to percentage of protein-protein interaction using the following equation:%Inhibition=100%-C-N/P-N*100%C: signal with compound treatmentP: signal for positive control (DMSO)N: signal for negative control (no SOS1 added).

T2 sequence (P01116 whole entry G12C, one chain of several): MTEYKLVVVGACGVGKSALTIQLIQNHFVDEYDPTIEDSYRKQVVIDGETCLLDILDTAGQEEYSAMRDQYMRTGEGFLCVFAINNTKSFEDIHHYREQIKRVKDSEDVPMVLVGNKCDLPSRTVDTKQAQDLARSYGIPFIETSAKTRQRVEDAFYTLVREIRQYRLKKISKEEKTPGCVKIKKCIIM

Structure (SMILES) | Kd [1] [nM] | IC50 [2] [nM]
Cc1c([C@@H](C)NC(=O)c2cn(C3CCOCC3)c(=O)cc2NC2CCN(C)CC2)cccc1C(F)(F)F [US20230348424, Example 1] | 6 | 
C[C@@H](NC(=O)c1cn(C23CC(C2)C3)c(=O)cc1N[C@H]1[C@@H]2CNC[C@@H]21)c1cccc(C(F)F)c1F [US20230348424, Example 89] | 12 | 
C[C@@H](NC(=O)c1cn(C2(C(F)(F)F)CC2)c(=O)cc1N[C@H]1[C@@H]2CN(C)C[C@@H]21)c1cccc(C(F)(F)F)c1F [US20230348424, Example 120] | 24 | 35.7
